{
  "source": "patent US6069132A",
  "about": "“Phosphazole compounds” (priority 1997, dated 2000)",
  "key": {"THP-1 cells": {"system": "THP-1 cells", "test": "Cytotoxicity on growing THP-1 cells (MTS assay)", "format": "cell-based, human", "conditions": "4 days (FIG. 1A)", "experimental": "Cytotoxicity Analysis. The cytotoxicity of the compounds were assayed using the CellTiter 96™ Aqueous Non-Radioactive Cell Proliferation (MTS) Assay kit obtained from Promega (Madison, Wis.) following the instructions provided by the supplier. The viable cell number was determined by trypan blue staining and cells (THP-1) were resuspended in PRMI supplemented with 10% FBS (GIBCO). Eighty microliters of cell suspension (1.7×10^4cells/well) was dispensed onto a 96-well microtiter plates. At this time 20 μL of drug (or control) was added to appropriate wells. Each concentration was assayed in quadruplicate. The plates were incubated at 37° C. in a humidified 5% CO2 atmosphere for 4 days and MTS assay […] for each concentration and the data obtained was used to calculate TC50 (the concentration of the compound necessary to inhibit the cell growth by 50%) for each compound."}, "TNFα": {"system": "TNFα", "test": "Inhibition of TNFα in LPS-stimulated PBMCs", "format": "cell-based, human", "conditions": "for inhibition at 10 µg/mL / inhibition at 50 µg/mL / inhibition at 100 µg/mL / inhibition at 250 µg/mL: Homo sapiens, PBMC; for inhibition at 10 µg/mL: 10 μg/ml; for inhibition at 50 µg/mL: 50 μg/ml; for inhibition at 100 µg/mL: 100 μg/ml; for inhibition at 250 µg/mL: 250 μg/ml", "experimental": "(§1) Primary cell assays. Primary human peripheral blood mononuclear cells (PBMCS) were isolated as described by Ojwang et al. (114). Isolated monocytes were added to 24-well cluster plates (Costar, Cambridge, Mass.) at a concentration of 1×10^5 viable cells per well. Culture medium or test material dilutions in culture medium were added to the wells, the plates were then incubated at 37° C. for one hour. […] The plates were incubated an additional 4, 24 or 48 hours. The supernatant fluids were then harvested and centrifuged to pellet cells or cellular debris, and the supernatant fluids were stored at -70° C. until they were assayed for the presence of TNFα using a commercially available ELISA kit, such as that described in Example 46."}, "IL-1β": {"system": "IL-1β", "test": "Inhibition of IL-1β in LPS-stimulated PBMCs", "format": "cell-based, human", "conditions": "for inhibition at 10 µg/mL / inhibition at 50 µg/mL / inhibition at 100 µg/mL / inhibition at 250 µg/mL: Homo sapiens, PBMC; for inhibition at 10 µg/mL: 10 μg/ml; for inhibition at 50 µg/mL: 50 μg/ml; for inhibition at 100 µg/mL: 100 μg/ml; for inhibition at 250 µg/mL: 250 μg/ml", "experimental": "The phosphazole T70241 was further evaluated for its activity against IL-1β in PBMCs stumulated with LPS and aliquotes collected after 4, 24 and 48 hour post-stimulation.\nas §1"}, "[1]": {"system": "adenosine deaminase (ADA)", "test": "Enzymatic hydrolysis by adenosine deaminase", "format": "in vitro ADME, calf", "experimental": "Adenosine deaminase (ADA, adenosine aminohydrolase, EC 3.5.4.4, SIGMA) from calf intestinal mucosa was prepared to give a stock of 1 mg/mL (250-280 units/mL) in pH 7.4, 0.01 M phosphate buffer. The relative rates of hydrolysis of selected compounds by ADA and characterization of the products was carried as follows. […] Fifty-microliter aliquots were taken at time intervals and hydrolysis was quenched by mixing with 0.45 mL of distilled water and then the diluted sample was heated at 95° C. for 6 min to ensure enxyme deactivation. The decrease in substrate concentration and the formation of the products was followed over time by UV-spectroscopic analysis. Adenosine was used as a control in this experiment and one unit is defined as the amount of ADA that hydrolyzes 1.0 μmol of adenosine/min at 25° C."}},
  "data": [
    {"smiles": "Nc1ncnc2pc[nH]c12", "note": "(stereo not drawn) [T70241, 7-amino-1H-1,3-azaphospholo[4,5-d]pyrimidine]", "values": [
      {"measurement": "effect on THP-1 growth", "setting": "THP-1 cells; higher concentrations", "result": "stimulates THP-1 growth at higher concentrations"},
      {"measurement": "toxic effect on THP-1 cells", "setting": "THP-1 cells; up to 1 mg/mL", "result": "no toxic effect on the THP-1 cells"},
      {"measurement": "TNFα production in PBMCs", "setting": "TNFα; 48 hours post-LPS induction", "result": "significantly reduce the levels of TNFα production in the PBMCs"},
      {"measurement": "inhibition at 10 µg/mL", "setting": "TNFα; 4 h", "result": 0, "unit": "%"},
      {"measurement": "inhibition at 10 µg/mL", "setting": "TNFα; 24 h", "result": -3, "unit": "%"},
      {"measurement": "inhibition at 10 µg/mL", "setting": "TNFα; 48 h", "result": -9, "unit": "%"},
      {"measurement": "inhibition at 50 µg/mL", "setting": "TNFα; 4 h", "result": 50, "unit": "%"},
      {"measurement": "inhibition at 50 µg/mL", "setting": "TNFα; 24 h", "result": 58, "unit": "%"},
      {"measurement": "inhibition at 50 µg/mL", "setting": "TNFα; 48 h", "result": 51, "unit": "%"},
      {"measurement": "inhibition at 100 µg/mL", "setting": "TNFα; 4 h", "result": 76, "unit": "%"},
      {"measurement": "inhibition at 100 µg/mL", "setting": "TNFα; 24 h", "result": 81, "unit": "%"},
      {"measurement": "inhibition at 100 µg/mL", "setting": "TNFα; 48 h", "result": 79, "unit": "%"},
      {"measurement": "inhibition at 250 µg/mL", "setting": "TNFα; 4 h", "result": 76, "unit": "%"},
      {"measurement": "inhibition at 250 µg/mL", "setting": "TNFα; 24 h", "result": 84, "unit": "%"},
      {"measurement": "inhibition at 250 µg/mL", "setting": "TNFα; 48 h", "result": 82, "unit": "%"},
      {"measurement": "inhibition at 10 µg/mL", "setting": "IL-1β; 4 h", "result": 18, "unit": "%"},
      {"measurement": "inhibition at 10 µg/mL", "setting": "IL-1β; 24 h", "result": 6, "unit": "%"},
      {"measurement": "inhibition at 10 µg/mL", "setting": "IL-1β; 48 h", "result": 4, "unit": "%"},
      {"measurement": "inhibition at 50 µg/mL", "setting": "IL-1β; 4 h", "result": 86, "unit": "%"},
      {"measurement": "inhibition at 50 µg/mL", "setting": "IL-1β; 24 h", "result": 24, "unit": "%"},
      {"measurement": "inhibition at 50 µg/mL", "setting": "IL-1β; 48 h", "result": 36, "unit": "%"},
      {"measurement": "inhibition at 100 µg/mL", "setting": "IL-1β; 4 h", "result": 98, "unit": "%"},
      {"measurement": "inhibition at 100 µg/mL", "setting": "IL-1β; 24 h", "result": 78, "unit": "%"},
      {"measurement": "inhibition at 100 µg/mL", "setting": "IL-1β; 48 h", "result": 70, "unit": "%"},
      {"measurement": "inhibition at 250 µg/mL", "setting": "IL-1β; 4 h", "result": 99.7, "unit": "%"},
      {"measurement": "inhibition at 250 µg/mL", "setting": "IL-1β; 24 h", "result": 86, "unit": "%"},
      {"measurement": "inhibition at 250 µg/mL", "setting": "IL-1β; 48 h", "result": 75, "unit": "%"},
      {"measurement": "inhibition of IL-1β in PBMCs", "setting": "IL-1β; up to 48 hour", "result": "inhibited IL-1β up to 48 hour in a dose dependent fashion"},
      {"measurement": "ADA substrate", "setting": "[1]", "result": "not a substrate for ADA"},
      {"measurement": "hydrolysis by ADA: UV spectra", "setting": "[1]; up to 5 hours in presence of ADA", "result": "remained unchanged"}
    ]}
  ]
}
